In patent US12582618B2, “Bis-biguanide compounds, pharmaceutical compositions and uses in managing cancer” (Emory University, priority 2019, dated 2026):

System: leader cell sub-population (H1299 leader cells)
Assay: drug screening of rare lung cancer cells isolated by spatiotemporal genomic and cellular analysis (SaGA)
Format: cell-based, human
Settings: rare lung cancer cells identified by SaGA, then drug screening; see FIG. 2A
Text: See e.g., Burrell et al., Nature, 2013, 501:338-345. Spatiotemporal genomic and cellular analysis (SaGA) is a technique which involves a combination of microscopy and genomics to isolate rare cells. See Konen et al. Nat Comm, 2017, 8:15078. Dendra2 is a photoconvertible fluorophore which emits green fluorescence. However, when excited by 405 nm light, green fluorescence is converted to red fluorescence due to cleavage of a histidine. Therefore, with single cell precision, any cancer cell expressing Dendra2 can be optically highlighted (turned red) using a point scanning confocal microscope. A region of interest is drawn around the cell(s) of interest, based upon by transmitted light or fluorescent protein tags. This region can be exposed to a 405 nm laser, resulting in near instantaneous photoconversion of Dendra2, and photomarking the cell red. Single cells can be photoconverted, without inducing any measurable photoconversion of neighboring cells. Cells are extracted from the 3-D environment using dispase for 15 minutes (collagenase for collagen). Cells are then sorted to separate red photoconverted cells from green cells using a FACS. Isolated cells are grown in culture using standard cell culture techniques. Spatiotemporal genomic and cellular analysis (SaGA) was used to identify rare lung cancer cells which were then subject to drug screening.

## CCCCC(CC)CNC(=N)NC(=N)NCCCCCCNC(=N)NC(=N)NCC(CC)CCCC (stereo not shown) [alexidine, 1,1′-(hexane-1,6-diyl)bis(5-(2-ethylhexyl)biguanidine)]
  effect on metastasis / invasive cell pack: disrupt metastasis by targeting a rare cell type within the invasive cell pack
